Key:
Sprague-Dawley rats = assay: Rat model of footpad tactile allodynia from prior injection of acid into the gastrocnemius muscle; type: in vivo; conditions: for Mean Paw Withdrawal Threshold before dose (g ± S.E.M.): after acid injection
Procedure: A rat model of persistent mechanical allodynia has been developed that is consistent with the muscle tenderness found in these patients. […] This model was utilized to evaluate compound A for its ability to inhibit allodynia.
On Day 0, male Sprague-Dawley rats (˜200 g body weight) in their dark cycle were placed in suspended wire-bottom cages and allowed to acclimate for 0.5 hours. […] Von Frey hairs were applied to the plantar surface for up to 6 seconds, and a flinching of the paw during that time frame was considered a positive response. After assessment, the right gastrocnemius muscle was shaved, swabbed with alcohol, and injected with 0.1 mL of 0.9% NaCl solution acidified to pH 4 with HCl. The injection was repeated on Day 5. Animals were manipulated with a dynamic plantar aesthesiometer (Ugo Basile, Comerio-Varese, Italy) on Days 6, 7, and 8 to facilitate induction of the allodynia. To screen the rats for the development of allodynia, the 15.1 g Von Frey hair was applied to the ipsilateral paw on Day 11. Positive responders from that test were included in the compound evaluation study. On Day 12 (the day of peak allodynia), animals were assigned into treatment groups, and then their ipsilateral paw withdrawal thresholds were determined to establish the allodynia (reduction in paw withdrawal threshold) compared to baseline values. Rats were then orally dosed with 10 mL/kg vehicle (0.5% hydroxypropyl-methylcellulose/0.2% Tween 80) or the indicated dose of compound A. Paw withdrawal thresholds were reassessed by Von Frey hairs in blinded fashion 2 hours after dosing for the dose-response study, and 2, 5, 8, and 24 hours after dosing in the time course experiment. The inhibition of allodynia was determined for each animal by dividing the increase in paw withdrawal threshold after treatment by the difference between baseline and pretreatment paw withdrawal values. This fraction was then converted to percent inhibition by multiplying by 100.

mice = assay: Inverted Screen Test to assess coordination; type: in vivo; conditions: doses up to 100 mg/kg PO, immediately following the TST, 1-minute trial
Procedure: Immediately following the TST, mice were also tested in the Inverted Screen Test to assess coordination. Animals were given a 1-minute trial in which they had to climb to the top of the inverted screen or to simply hang on and not fall off.

[1] = 10 mg/kg oral, 2 hours after treatment (Table II)
[2] = 10 mg/kg oral, 2 hr after dose (Table I)
[3] = 10 mg/kg oral, 5 hours after treatment
[4] = 10 mg/kg oral, 8 hours after treatment
[5] = 10 mg/kg oral, 24 hours after treatment

## C[C@H]1CC(CN)(CC(=O)O)C[C@@H]1C [Compound A, (3S, 4S)-(1-Aminomethyl-3,4-dimethyl-cyclopentyl)-acetic acid]
Sprague-Dawley rats; 3 mg/kg group, before oral dose
  Mean Paw Withdrawal Threshold before dose (g ± S.E.M.): 6.3 ± 0.8 g
Sprague-Dawley rats; 3 mg/kg oral, 2 hr after dose
  Mean % Inhibition of Allodynia: 33%
  Mean Paw Withdrawal Threshold 2 hr after dose (g ± S.E.M.): 11.4 ± 1.7 g
Sprague-Dawley rats; 10 mg/kg group, Prior to Treatment (Table II)
  Mean Paw Withdrawal Threshold (g ± S.E.M.): 6.5 ± 0.9 g
Sprague-Dawley rats; 10 mg/kg group, before oral dose (Table I)
  Mean Paw Withdrawal Threshold before dose (g ± S.E.M.): 6.2 ± 1.0 g
Sprague-Dawley rats; 10 mg/kg oral
  Efficacy sustained throughout observation period after dosing: ≥ 24 h
Sprague-Dawley rats; [1]
  Mean % Inhibition of Allodynia: 60% ± 10
  Mean Paw Withdrawal Threshold after treatment (g ± S.E.M.): 16.0 ± 1.4 g
Sprague-Dawley rats; [2]
  Mean % Inhibition of Allodynia: 72%
  Mean Paw Withdrawal Threshold 2 hr after dose (g ± S.E.M.): 17.4 ± 1.5 g
Sprague-Dawley rats; [3]
  Mean % Inhibition of Allodynia: 62% ± 10
  Mean Paw Withdrawal Threshold after treatment (g ± S.E.M.): 15.2 ± 1.8 g
Sprague-Dawley rats; [4]
  Mean % Inhibition of Allodynia: 31% ± 12
  Mean Paw Withdrawal Threshold after treatment (g ± S.E.M.): 9.9 ± 2.0 g
Sprague-Dawley rats; [5]
  Mean % Inhibition of Allodynia: 46% ± 17
  Mean Paw Withdrawal Threshold after treatment (g ± S.E.M.): 13.3 ± 2.8 g
Sprague-Dawley rats; oral, 2 hours after dosing
  Minimum effective dose for attenuating allodynia: 10 mg/kg
mice
  Screen fall-off: did not cause animals to fall off

Reference: US20040180959A1, “Gabapentin analogues for fibromy algia and concomitant disorders” (priority 2002, published 2004)
